Data from article PMC10540216, “Activity Guided Azide-methyllysine Photo-trapping for Substrate Profiling of Lysine Demethylases” (Journal of the American Chemical Society, 2023).
Entries after “also recorded” stand apart in the source; their conditions may differ. Where a SMILES comes first, the peptide text is derived from it. Where no end group is shown, it is not given here. [ ]: non-standard residue; d: D form. Lys(Me3) = C[N+](C)(C)CCCC[C@H](N)C(=O)O; Lys(Me2) = CN(C)CCCC[C@H](N)C(=O)O; Lys(Me) = CNCCCC[C@H](N)C(=O)O

Tests used:
[1] = biological target: T1, CBX1 chromodomain (Homo sapiens, UniProt P83916); test: Isothermal titration calorimetry of peptide binding to CBX1 chromodomain; conditions: ITC, T 288.15 K in Table S6
T1 construct: occupied by CBX1 chromodomain at a concentration of 110 µM; 6xHis (N); made in house

[2] = system: KDM4A; test: Demethylase activity of wild type KDM4A on peptide substrates (MALDI-TOF MS); format: biochemical, human; conditions: 10 µM enzyme, 10 µM peptide, 1 mM 2OG, 50 mM Tris pH 8, 37°C, three hours
Description: fritted syringe was rocked for 2-4 hours at room temperature using a fixed angle rocker (Fisher 07202202). After cleavage, the solvent was ejected from the syringe into a 50mL Falcon tube, leaving behind the resin in the syringe. Nitrogen gas was bubbled through the solution to remove roughly 50% of the TFA prior to precipitation via -80°C diethyl ether for 5-10 minutes (Acros #326860010). Precipitate was then pelleted via centrifugation (Sorvall Legend XTR) at 3000 rpm for 5 mins. Supernatant was decanted. Crude peptide was then resuspended in 0.1% TFA prior to purification and characterization as described for peptides from the peptide facility. The integrity of the purified peptides was confirmed by MALDI-TOF MS. The complete list is in Table S1.
3. Expression and purification of wild type KDM4A-E […]
bacterial expression construct pNIC28-Bsa4 (Addgene ID: 38846) was obtained from Addgene […]
E. Coli BL21 (DE3) competent cells (Invitrogen) using pNIC28-Bsa4 kanamycin-resistant vector.
A single colony was picked up and grown overnight at 37 °C in 10 mL of Luria-Bertani (LB) broth in the presence of 50 μg/mL kanamycin and 35 μg/mL chloramphenicol. The culture was diluted 100-fold and allowed to grow at 37 °C to an optical density (OD600) of 0.8, and protein expression was induced overnight at 17 °C with 0.6 mM IPTG in an Innova 44® Incubator shaker (New Brunswick Scientific). Proteins were purified as follows: harvested cells were resuspended in 15 mL lysis buffer (50 mM Tris-HCl pH 8.0, 200 mM NaCl, 5 mM b-mercaptoethanol, 10% glycerol, 25 mM imidazole, Lysozyme, DNase, and Roche protease inhibitor cocktail). […]
After passing 20 volumes of washing buffer (50 mM Tris-HCl pH 8.0, 200 mM NaCl, 5 mM b-mercaptoethanol, 10% glycerol, and 25 mM imidazole), proteins were eluted with a buffer containing 50 mM Tris-HCl pH 8.0, 200 mM NaCl, 5 mM b-mercaptoethanol, 10% glycerol, and 400 mM imidazole. […] The protein concentration was determined […]
8.0, 200 mM NaCl, and 10% glycerol. […] The protein concentration was determined using Bradford assay kit (BioRad Laboratories) with BSA as a standard. […]

[3] = biological target: T1, CBX1 chromodomain; test: Isothermal titration calorimetry of peptide binding to CBX1 chromodomain; conditions: ITC, 25 °C, 1.1 mM peptide into 110 µM CBX1 chromodomain; for Kd: 200mM NaCl, 10% glycerol, 50mM Tris pH 8.0, single binding site model
Description: (§1) 7. Expression and purification of lysine methyltransferases and Chromodomains […]
17. Isothermal Titration Calorimetry
Isothermal titration calorimetry (ITC) was performed with an ITC200 instrument (MicroCal, Malvern). Experiments were conducted at 25 °C while stirring at 750 rpm. Buffers of protein […]
were matched to 200mM NaCl, 10% glycerol, and 50mM Tris pH 8.0. Each titration was performed as follows: one initial injection of 0.4 µL for 0.8 seconds, followed by 19 injections of 2.0 µL for 4 seconds, with ≥2 mins between each injection. The initial injection was discarded prior to data analysis. The microsyringe (40µL) was loaded with 1.1 mM peptide and injected into the cell (200µL), occupied by CBX1 chromodomain at a concentration of 110 µM. Data was fitted to a single binding site model using Microcal ITC200 Software with Origin Lab 7.
(§2) KDM4A mammalian expression plasmid in CMV vector was purchased from Addgene (plasmid #24180). Full-length G9a in pCDNA3 vector was kind from Prof. Minkui Luo at the Memorial Sloan-Kettering Cancer Center. HEK293T/17 cells (ATCC) were grown in a T25 containing Delbucco’s Modified Eagle Medium (DMEM) (Corning) with 10% FBS at 37 °C, 5% CO2, and 95% relative humidity. When cells reached 80% confluency, 5 µg of plasmid and 10 µg

[4] = system: KDM4A-E; test: Demethylase activity of KDM4 subfamily on peptide substrates (MALDI-TOF MS), result worded for KDM4A-E together; format: biochemical, human; conditions: wild-type KDM4A-E, 10 µM enzyme, 10 µM peptide, 1 mM 2OG, 50 mM Tris pH 8, 37°C, three hours
[5] = system: G9a; test: Methylation of eIF4A3-K374 peptides by KMT (MALDI-TOF MS); format: biochemical; conditions: 20 µM KMT, 10 µM peptide, 200 µM SAM
Description: as §1
16. Methylation activity of wild type KMTs on eIF4A3-K374me0/1/2 peptides 20 µM lysine methyltransferase, 10 µM eIF4A3-me0/1/2 peptide and 200 µM SAM were incubated at room temperature for 1-2 hours in 50 mM Tris pH 8.0. Reaction was stopped by storing the microcentrifuge tubes on ice. After mixing, 0.8 µL of sample and 0.8 µL of α-cyano-4-hydroxycinnamic acid (CHCA) (dissolved in 50:50 0.1% TFA and acetonitrile) were combined on a MALDI plate. Samples were ionized using reflectron positive mode on Bruker Daltonics UltrafleXtreme MALDI TOF with detection carried out from 700-3500 m/z. Bruker Flex Analysis software was used to analyze the MALDI-TOF MS spectra.
17. Isothermal Titration Calorimetry […]
The microsyringe (40µL) was loaded with 1.1 mM peptide and injected into the cell (200µL), occupied by CBX1 chromodomain at a concentration of 110 µM. Data was fitted to a single binding site model using Microcal ITC200 Software with Origin Lab 7.
as §2

[6] = system: KDM4E-L72AzF; test: Photo-crosslinking with TAMRA peptides, in-gel fluorescence; format: binding; conditions: 10 µM peptide, 20 µM protein, UV irradiation
Description: (§3) 10. Photo-crosslinking experiment with peptides and in-gel fluorescence For peptide photo-crosslinking experiments, 10 µM TAMRA-labeled H3K9me0 or H3K9me3 […]
(§4) mM ascorbic acid, 50 mM tris pH 8.0, 50 μM Fe(NH4)2(SO4)2, 200 µM 2OG. Samples were […]
(§5) 365nm 100% irradiated) for 30 minutes at 4 °C on ice. Negative controls were kept in dark on ice for the full 30 minutes. 10 µL of sample was mixed with 5 µL 4X Laemmli dye (Biorad #1610747) and separated on a 4-12 % Criterion XT precast gel (Bio-Rad Laboratories). Gels were imaged on a ChemiDoc MP Imaging system using TAMRA fluorophore excitation wavelength (Emission filter 605/50, Light: green Epi illumination). The gel was subsequently stained with Coomassie brilliant blue R-250 staining solution to confirm the presence of proteins in all the samples. […]

[7] = system: KDM4D-L75AzF; test: as above; format: binding, human; conditions: 10 µM peptide, 20 µM protein, UV irradiation
Description: as §3, §4, §5

[8] = system: wild-type KDM4A; test: as above; format: binding, human; conditions: 10 µM peptide, 20 µM protein, 365 nm UV, 30 minutes at 4 °C
Description: as §3, §4, §5

[9] = system: catalytically dead AzF variants of KDM4A; test: as above; format: binding, human; conditions: majority of the catalytically dead AzF variants, 10 µM peptide, 20 µM protein, 365 nm UV, 30 minutes
Description: as §3, §4, §5

[10] = system: KDM4C-I73AzF; test: as above; format: binding, human; conditions: 10 µM peptide, 20 µM protein, UV irradiation
Description: as §3, §4, §5

[11] = system: KDM4A-I71AzF; test: as above; format: binding, human
[12] = system: KDM4A-I71AzF; test: Demethylase activity of AzF mutant on peptide substrates (MALDI-TOF MS); format: biochemical, human; conditions: 10 µM enzyme, 10 µM peptide, 1 mM 2OG, 50 mM Tris pH 8, 37°C, three hours

T1 sequence (P83916 21-79 limits assumed): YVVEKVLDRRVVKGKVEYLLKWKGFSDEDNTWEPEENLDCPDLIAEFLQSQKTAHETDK

Molecule | TΔS [1] [kcal/mol] | ΔG [1] [kcal/mol] | ΔH [1] [kcal/mol] | ΔS [1] [cal/mol/degree] | demethylation by KDM4A [2] | Kd [3] [µM] | methylation by G9a (in words) [5] | further results
CC[C@H](C)[C@H](NC(=O)[C@H](C)NC(=O)[C@@H](NC(=O)CNC(=O)[C@H](CCCC[N+](C)(C)C)NC(=O)[C@H](CCCNC(=N)N)NC(=O)CNC(=O)[C@H](Cc1ccc(O)cc1)NC(=O)[C@H](CCCNC(=N)N)NC(=O)CNC(=O)[C@H](CO)NC(=O)[C@H](CCCNC(=N)N)NC(=O)CN)C(C)C)C(=O)N[C@@H](CC(N)=O)C(=O)N[C@@H](Cc1ccccc1)C(=O)N[C@H](C(=O)N[C@@H](CCCCN)C(N)=O)C(C)C [compound 13] (H-GRSGRYGR[Lys(Me3)]GVAINFVK-NH2) | 2.472 | -6.230 | -3.758 | 8.58 | indeed demethylated by KDM4A in vitro | 23.2 ± 2 | – | demethylation by KDM4A-E [4]: demethylated by multiple KDM4s; also recorded: robust demethylation
CC[C@H](C)[C@H](NC(=O)[C@H](C)NC(=O)[C@@H](NC(=O)CNC(=O)[C@H](CCCCN(C)C)NC(=O)[C@H](CCCNC(=N)N)NC(=O)CNC(=O)[C@H](Cc1ccc(O)cc1)NC(=O)[C@H](CCCNC(=N)N)NC(=O)CNC(=O)[C@H](CO)NC(=O)[C@H](CCCNC(=N)N)NC(=O)CN)C(C)C)C(=O)N[C@@H](CC(N)=O)C(=O)N[C@@H](Cc1ccccc1)C(=O)N[C@H](C(=O)N[C@@H](CCCCN)C(N)=O)C(C)C [compound 23] (H-GRSGRYGR[Lys(Me2)]GVAINFVK-NH2) | -1.106 | -5.470 | -6.576 | -3.84 | demethylated only to eIF4A3-K374me1 by KDM4A; also recorded: demethylated to Kme1 by KDM4A | 95.2 ± 1.4 | methylated by G9a; also recorded: trimethylated by G9a | –
(5/6)-TA M R A-GGARTKQTARKme3STGGKAPR [compound 6, tetramethylrhodamine (TAMRA)-attached H3K9me3 peptide] | – | – | – | – | – | – | – | crosslinking with KDM4E-L72AzF [6]: successful crosslinking; crosslinking with KDM4D-L75AzF [7]: successful crosslinking; crosslinking with wild-type KDM4A [8]: failed to undergo crosslinking; crosslinking with catalytically dead AzF variants [9]: ineffective to trap the substrate; crosslinking with KDM4C-I73AzF [10]: successful crosslinking; crosslinking with KDM4A-I71AzF ([11]; 10 µM peptide, 20 µM protein, 365 nm UV, 30 minutes at 4 °C): robust crosslinking; crosslinking without UV exposure (control) ([11]; kept in dark on ice 30 minutes): no fluorescence band was detected
GRSGRYGR[Lys(Me)]GVAINFVK [compound 22, eIF4A3-K374me1 peptide] | 0 | 0 | 0 | 0 | not demethylated by KDM4A; also recorded: failed to convert to Kme0 | – | methylated by G9a; also recorded: trimethylated by G9a | binding to CBX1 chromodomain (in words) ([3]; 50mM Tris pH 8.0): no binding; also recorded: not bind to CBX1; also recorded: no detectable interaction
KSAPSTGGVKme3KPHRYKPGTGK [compound 5, H3K36me3 peptide] | – | – | – | – | – | – | – | demethylation by I71AzF mutant [12]: modestly
